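1) Cells in 96-well plates. 2) Compound, 48 h, 5 concentrations. 3) Linear interpolation between surrounding doses. 4) Unreached endpoint = highest concentration. GI50 marks 50% less growth.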 Activity calls are given as the source filed them. No stated cut-off is given here; in the data, active = GI50 up to about 1.1 µM and inactive = higher.
Columns and labels:
Assay in all cases: inhibition of tumour cell growth, NCI panel, 48 h
786-0 = test system: 786-0
RPMI-8226 = test system: RPMI-8226
SN12C = test system: SN12C
UACC-62 = test system: UACC-62
SW-620 = test system: SW-620
Hs-578T = test system: Hs-578T
M14 = test system: M14
SNB-19 = test system: SNB-19
OVCAR-4 = test system: OVCAR-4
NCI-H23 = test system: NCI-H23
A498 = test system: A498
IGROV-1 = test system: IGROV-1
NCI/ADR-RES = test system: NCI/ADR-RES
SK-MEL-28 = test system: SK-MEL-28
NCI-H522 = test system: NCI-H522
T47D = test system: T47D
KM12 = test system: KM12
MCF7 = test system: MCF7
COLO 205 = test system: COLO 205
NCI-H226 = test system: NCI-H226

O=C(CSC1=NCCN1)Nc1ccccc1
GI50 (786-0): 16.1 µM (inactive)
GI50 (RPMI-8226): 41.2 µM (inactive)
GI50 (SN12C): 17.5 µM (inactive)
GI50 (UACC-62): 22.1 µM (inactive)
GI50 (SW-620): 25.8 µM (inactive)
GI50 (Hs-578T): 28.1 µM (inactive)
GI50 (M14): 32.9 µM (inactive)
GI50 (SNB-19): 69.3 µM (inactive)
GI50 (OVCAR-4): 65.8 µM (inactive)
GI50 (NCI-H23): 37.6 µM (inactive)
GI50 (A498): 35 µM (inactive)
GI50 (IGROV-1): 33.4 µM (inactive)
GI50 (NCI/ADR-RES): 26.4 µM (inactive)
GI50 (SK-MEL-28): 26.3 µM (inactive)
GI50 (NCI-H522): 19 µM (inactive)
GI50 (T47D): 12.9 µM (inactive)
GI50 (KM12): 48 µM (inactive)

COC(=O)C12C(=O)CC3CCC1C32C(=O)OC (stereo not given)
GI50 (MCF7): > 100 µM (inactive)
GI50 (786-0): > 100 µM (inactive)
GI50 (RPMI-8226): > 100 µM (inactive)
GI50 (SN12C): > 100 µM (inactive)
GI50 (UACC-62): > 100 µM (inactive)
GI50 (SW-620): > 100 µM (inactive)
GI50 (COLO 205): > 100 µM (inactive)
GI50 (M14): > 100 µM (inactive)
GI50 (SNB-19): > 100 µM (inactive)
GI50 (OVCAR-4): > 100 µM (inactive)
GI50 (NCI-H23): > 100 µM (inactive)
GI50 (IGROV-1): > 100 µM (inactive)
GI50 (NCI/ADR-RES): > 100 µM (inactive)
GI50 (NCI-H226): > 100 µM (inactive)
GI50 (SK-MEL-28): > 100 µM (inactive)
GI50 (NCI-H522): > 100 µM (inactive)
GI50 (KM12): > 100 µM (inactive)

CC(=O)OC1COC(n2c(=S)n(-c3ccc(C)cc3)c(=O)c3ccccc32)C(OC(C)=O)C1OC(C)=O (stereo not given)
GI50 (786-0): > 100 µM (inactive)
GI50 (RPMI-8226): 47.5 µM (inactive)
GI50 (SN12C): > 100 µM (inactive)
GI50 (UACC-62): > 100 µM (inactive)
GI50 (SW-620): > 100 µM (inactive)
GI50 (COLO 205): > 100 µM (inactive)
GI50 (M14): > 100 µM (inactive)
GI50 (SNB-19): > 100 µM (inactive)
GI50 (OVCAR-4): > 100 µM (inactive)
GI50 (NCI-H23): > 100 µM (inactive)
GI50 (A498): > 100 µM (inactive)
GI50 (IGROV-1): > 100 µM (inactive)
GI50 (NCI-H226): > 100 µM (inactive)
GI50 (SK-MEL-28): > 100 µM (inactive)
GI50 (NCI-H522): > 100 µM (inactive)
GI50 (KM12): > 100 µM (inactive)

CC1CN=C(NCc2ccccc2)S1 (stereo not given)
GI50 (MCF7): > 100 µM (inactive)
GI50 (RPMI-8226): > 100 µM (inactive)
GI50 (SN12C): > 100 µM (inactive)
GI50 (UACC-62): > 100 µM (inactive)
GI50 (Hs-578T): > 100 µM (inactive)
GI50 (M14): > 100 µM (inactive)
GI50 (SNB-19): > 100 µM (inactive)
GI50 (NCI-H23): > 100 µM (inactive)
GI50 (A498): > 100 µM (inactive)
GI50 (NCI-H226): 86.7 µM (inactive)
GI50 (SK-MEL-28): > 100 µM (inactive)
GI50 (NCI-H522): > 100 µM (inactive)
GI50 (T47D): > 100 µM (inactive)
GI50 (KM12): > 100 µM (inactive)

O=C(c1cccnc1)N1N=C(c2ccc3c(c2)OCO3)CC1(O)c1cc(F)c(Cl)cc1Cl (stereo not given)
GI50 (786-0): 18.6 µM (inactive)
GI50 (RPMI-8226): 27.2 µM (inactive)
GI50 (SN12C): 18.5 µM (inactive)
GI50 (SW-620): 23.8 µM (inactive)
GI50 (Hs-578T): 33 µM (inactive)
GI50 (COLO 205): 15.1 µM (inactive)
GI50 (M14): 31.8 µM (inactive)
GI50 (SNB-19): 32.6 µM (inactive)
GI50 (OVCAR-4): 22.4 µM (inactive)
GI50 (NCI-H23): 24.9 µM (inactive)
GI50 (IGROV-1): 11.4 µM (inactive)
GI50 (NCI/ADR-RES): 18.5 µM (inactive)
GI50 (NCI-H226): 16.2 µM (inactive)
GI50 (SK-MEL-28): 25.5 µM (inactive)
GI50 (NCI-H522): 17 µM (inactive)
GI50 (T47D): 3.59 µM (inactive)
GI50 (KM12): 26.9 µM (inactive)

O=C(O)c1nc2ccccc2nc1Nc1ccc(Cl)c(Cl)c1
GI50 (786-0): 20.2 µM (inactive)
GI50 (RPMI-8226): 35.3 µM (inactive)
GI50 (SN12C): 20.1 µM (inactive)
GI50 (SW-620): 31.7 µM (inactive)
GI50 (COLO 205): 23.5 µM (inactive)
GI50 (M14): 24.5 µM (inactive)
GI50 (SNB-19): 24.9 µM (inactive)
GI50 (NCI-H23): 17.7 µM (inactive)
GI50 (A498): 13.1 µM (inactive)
GI50 (IGROV-1): 20.5 µM (inactive)
GI50 (NCI/ADR-RES): 27.9 µM (inactive)
GI50 (NCI-H226): 43.4 µM (inactive)
GI50 (SK-MEL-28): 13 µM (inactive)
GI50 (NCI-H522): 17 µM (inactive)
GI50 (T47D): 17.7 µM (inactive)
GI50 (KM12): 10.8 µM (inactive)

CC(=O)OCCOCNC(=S)N/N=C/c1cc(Br)cs1
GI50 (786-0): > 100 µM (inactive)
GI50 (RPMI-8226): > 100 µM (inactive)
GI50 (SN12C): > 100 µM (inactive)
GI50 (UACC-62): > 100 µM (inactive)
GI50 (SW-620): > 100 µM (inactive)
GI50 (COLO 205): > 100 µM (inactive)
GI50 (M14): > 100 µM (inactive)
GI50 (SNB-19): > 100 µM (inactive)
GI50 (OVCAR-4): > 100 µM (inactive)
GI50 (NCI-H23): > 100 µM (inactive)
GI50 (A498): > 100 µM (inactive)
GI50 (IGROV-1): > 100 µM (inactive)
GI50 (NCI-H226): > 100 µM (inactive)
GI50 (SK-MEL-28): > 100 µM (inactive)
GI50 (NCI-H522): > 100 µM (inactive)
GI50 (KM12): > 100 µM (inactive)

COC(C/C=C\C=C\CC/C=C/CC(C)/C=C/C(=C\C(=O)O)CC(=O)O)/C(C)=C\C=C(/C)C(=O)O (stereo not given)
GI50 (RPMI-8226): > 100 µM (inactive)
GI50 (SN12C): > 100 µM (inactive)
GI50 (UACC-62): > 100 µM (inactive)
GI50 (SW-620): > 100 µM (inactive)
GI50 (Hs-578T): 61.7 µM (inactive)
GI50 (COLO 205): > 100 µM (inactive)
GI50 (M14): > 100 µM (inactive)
GI50 (SNB-19): > 100 µM (inactive)
GI50 (OVCAR-4): > 100 µM (inactive)
GI50 (NCI-H23): > 100 µM (inactive)
GI50 (A498): > 100 µM (inactive)
GI50 (IGROV-1): > 100 µM (inactive)
GI50 (SK-MEL-28): > 100 µM (inactive)
GI50 (NCI-H522): > 100 µM (inactive)
GI50 (KM12): > 100 µM (inactive)

COc1ccc(CC2C(=O)NC(C)C(=O)N(C)C3Cc4ccc(cc4)Oc4cc(ccc4O)CC(C(=O)NC(C)C(=O)NC(C)C(=O)N2C)N(C)C3=O)cc1 (stereo not given)
GI50 (MCF7): 0.0175 µM (active)
GI50 (786-0): < 0.0001 µM (active)
GI50 (RPMI-8226): 0.0175 µM (active)
GI50 (SN12C): 0.0175 µM (active)
GI50 (UACC-62): 0.0175 µM (active)
GI50 (SW-620): 0.0177 µM (active)
GI50 (COLO 205): 0.0175 µM (active)
GI50 (M14): 0.0027 µM (active)
GI50 (OVCAR-4): 0.0175 µM (active)
GI50 (NCI-H23): 0.0175 µM (active)
GI50 (A498): 0.0175 µM (active)
GI50 (IGROV-1): 0.0175 µM (active)
GI50 (NCI/ADR-RES): 2.44 µM (inactive)
GI50 (SK-MEL-28): 0.0175 µM (active)
GI50 (T47D): < 0.0001 µM (active)

CC1(C)CC2=NO[Se]3=C2C(=NO3)C1
GI50 (MCF7): 3.27 µM (inactive)
GI50 (786-0): 1.94 µM (inactive)
GI50 (RPMI-8226): 3.14 µM (inactive)
GI50 (SN12C): 4.43 µM (inactive)
GI50 (UACC-62): 2.27 µM (inactive)
GI50 (SW-620): 3.16 µM (inactive)
GI50 (Hs-578T): 4.35 µM (inactive)
GI50 (COLO 205): 2.07 µM (inactive)
GI50 (M14): 1.99 µM (inactive)
GI50 (SNB-19): 4.08 µM (inactive)
GI50 (OVCAR-4): 3.41 µM (inactive)
GI50 (NCI-H23): 2.15 µM (inactive)
GI50 (A498): 4.3 µM (inactive)
GI50 (IGROV-1): 2.72 µM (inactive)
GI50 (NCI-H226): 3.76 µM (inactive)
GI50 (SK-MEL-28): 4.54 µM (inactive)
GI50 (NCI-H522): 1.9 µM (inactive)
GI50 (T47D): 6.07 µM (inactive)
GI50 (KM12): 2.64 µM (inactive)

c1ccc2c(c1)nnn2CN1CCOCC1
GI50 (786-0): > 100 µM (inactive)
GI50 (SN12C): 39.8 µM (inactive)
GI50 (UACC-62): 58.3 µM (inactive)
GI50 (SW-620): 28.3 µM (inactive)
GI50 (Hs-578T): 19.2 µM (inactive)
GI50 (M14): > 100 µM (inactive)
GI50 (SNB-19): > 100 µM (inactive)
GI50 (OVCAR-4): > 100 µM (inactive)
GI50 (NCI-H23): > 100 µM (inactive)
GI50 (A498): > 100 µM (inactive)
GI50 (IGROV-1): 94.4 µM (inactive)
GI50 (NCI/ADR-RES): > 100 µM (inactive)
GI50 (NCI-H226): > 100 µM (inactive)
GI50 (SK-MEL-28): > 100 µM (inactive)
GI50 (NCI-H522): > 100 µM (inactive)
GI50 (T47D): > 100 µM (inactive)
GI50 (KM12): > 100 µM (inactive)

COc1cc(/C=C2/C(=O)N(C(=O)OCC(C)C)C(Cc3cc(OC)c(OC)c(C)c3OC)C(=O)N2Cc2ccccc2)c(OC)c(C)c1OC (stereo not given)
GI50 (786-0): > 100 µM (inactive)
GI50 (RPMI-8226): 21.8 µM (inactive)
GI50 (SN12C): > 100 µM (inactive)
GI50 (UACC-62): > 100 µM (inactive)
GI50 (SW-620): > 100 µM (inactive)
GI50 (COLO 205): 11.2 µM (inactive)
GI50 (M14): 69.3 µM (inactive)
GI50 (SNB-19): > 100 µM (inactive)
GI50 (OVCAR-4): > 100 µM (inactive)
GI50 (NCI-H23): > 100 µM (inactive)
GI50 (A498): > 100 µM (inactive)
GI50 (IGROV-1): > 100 µM (inactive)
GI50 (NCI-H226): 2.56 µM (inactive)
GI50 (SK-MEL-28): > 100 µM (inactive)
GI50 (NCI-H522): 5.26 µM (inactive)
GI50 (KM12): > 100 µM (inactive)

From ChEMBL document CHEMBL1201862, “PubChem BioAssay data set” (2004)
